The source of these data is patent US10342758B2, “Cationic lipid” (Kyowa Hakko Kirin Co., Ltd., priority 2012, dated 2019).

This data set can be described thus: Average particle diameter of preparation (Zetasizer Nano ZS). The class given is physicochemical. Conditions: preparation with f7 siRNA. The method, then: The average particle diameter of each preparation (composition) was measured using a particle diameter measurement device (Zetasizer Nano ZS, manufactured by Malvern, hereafter the same).
The average particle diameter of each preparation (composition) was measured using a particle diameter measurement device.
Each sample was weighed and suspended in an aqueous solution containing hydrochloric acid and ethanol so that the ratio of Compound A-1/PEG-DMPE Na (manufactured by NOF Corporation) was 57.3/5.52 mmol/L, and then, the resulting mixture was repeatedly subjected to stirring using a vortex stirring mixer and heating, whereby a uniform suspension was obtained. This suspension was passed through a 0.2-μm polycarbonate membrane filter and thereafter passed through a 0.05-μm polycarbonate membrane filter at room temperature, whereby a dispersion liquid of particles (liposome) of Compound A-1/PEG-DMPE Na was obtained. The average particle diameter of the obtained liposome was measured using a particle diameter measuring apparatus to confirm that the average particle diameter was within the range from 30 nm to 100 nm. In the obtained dispersion liquid of liposome, the f7 siRNA solution was mixed at a ratio of the dispersion liquid of liposome to the fl siRNA solution of 3:1, and then, distilled water that was three times the amount was added thereto and mixed therewith, whereby a dispersion liquid of Compound A-1/PEG-DMPE Na/f7 siRNA complex was prepared.
The average particle diameter of the preparation (composition) was measured using a particle diameter measurement device.

Where [1] appears, read: compound/PEG-DMPE Na/DSPC/cholesterol=7.030/0.755/2.038/4.892 mmol/L, Example 54.
Where [2] appears, read: liposome/siRNA complex encapsulated by lipid membrane, Examples 52, 53 / Comparative Example 3.
Where [3] appears, read: compound/PEG-DMPE Na/DSPC/cholesterol, Examples 50, 51 / Comparative Example 2.

On to `CCCCC/C=C\C/C=C\CCCCCCCCN(CCCCCCCC/C=C\C/C=C\CCCCC)C(=O)OCCCN(C)C` [Compound A-1, 3-(Dimethylamino) propyl di((9Z,12Z)-octadeca-9,12-dienyl)carbamate], for which the “Particle diameter of Preparation obtained” value (shortened to “Particle diameter”) runs as follows: under setting [1], 113.0 nm; under setting [2], 95.9 nm.

Turning to `CCCCC/C=C\C/C=C\CCCCCCCCN(CCCCCCCC/C=C\C/C=C\CCCCC)C(=O)OCCN(C)C` [Compound A-5, 2-(Dimethylamino)ethyl di((9Z,12Z)-octadeca-9,12-dienyl)carbamate], the “Particle diameter” value reads like this: under setting [3], 139.2 nm; under setting [2], 93.4 nm.

On to `CCCCC/C=C\C/C=C\CCCCCCCCN(CCCCCCCC/C=C\C/C=C\CCCCC)C(=O)OCCC1CCCN1C` (stereo not shown) [Compound A-6, 2-(1-Methylpyrrolidin-2-yl)ethyl di((9Z,12Z)-octadeca-9,12-dienyl)carbamate], for which, under setting [2], the “Particle diameter” value was found to be 93.6 nm.

As to `CCCCC/C=C\C/C=C\CCCCCCCCN(CCCCCCCC/C=C\C/C=C\CCCCC)C(=O)OCCCN1CCCCC1` [Compound A-7, 3-(Piperidin-1-yl)propyl di((9Z,12Z)-octadeca-9,12-dienyl)carbamate], the “Particle diameter” value was 123.3 nm under setting [1] and 94.6 nm under setting [2].

As to `CCCCC/C=C\C/C=C\CCCCCCCCN(CCCCCCCCCCCC)C(=O)OCCCN(C)C` [Compound A-9, 3-(Dimethylamino)propyl dodecyl((9Z,12Z)-octadeca-9,12-dienyl) carbamate], under setting [3], the “Particle diameter” value is 116.4 nm.

Turning to `CCCCC/C=C\C/C=C\CCCCCCCCN(CCCCCCCCCC)C(=O)OCCCN(C)C` [Compound A-10, 3-(Dimethylamino)propyl decyl((9Z,12Z)-octadeca-9,12-dienyl)carbamate], the “Particle diameter” value amounted to 148.7 nm under setting [3], 156.2 nm under setting [1] and 123.1 nm under setting [2].

As for `CCCCC/C=C\C/C=C\CCCCCCCCN(CCCCCCCC)C(=O)OCCCN(C)C` [Compound A-11, 3-(Dimethylamino)propyl ((9Z,12Z)-octadeca-9,12-dienyl)(octyl)carbamate], under setting [3], the “Particle diameter” value came out at 153.4 nm.

For the compound `CCCCC/C=C\C/C=C\CCCCCCCCOCCN(CCCCCCCC/C=C\C/C=C\CCCCC)C(=O)OCCCN(C)C` [Compound A-12, 3-(Dimethylamino)propyl ((9Z,12Z)-octadeca-9,12-dienyl)(2-((9Z,12Z)-octadeca-9,12-dienyloxy)ethyl)carbamate], the “Particle diameter” value was determined as 133.0 nm under setting [3] and 111.5 nm under setting [2].

For the compound `CCCCC/C=C\C/C=C\CCCCCCCCN(CCCCCCCC/C=C\C/C=C\CCCCC)C(=O)OCCCCN(C)C` [Compound A-13, 4-(Dimethylamino)butyl di((9Z,12Z)-octadeca-9,12-dienyl)carbamate], the “Particle diameter” value runs as follows: under setting [3], 135.0 nm; under setting [2], 103.1 nm.

For the compound `CCCCC/C=C\C/C=C\CCCCCCCCN(CCCCCCCC/C=C\C/C=C\CCCCC)C(=O)OCC1CCN(C)CC1` [Compound A-14, (1-Methylpiperidin-4-yl)methyl di((9Z,12Z)-octadeca-9,12-dien-1-yl)carbamate], the “Particle diameter” value under setting [3] is recorded as 134.4 nm and the “Particle diameter” value under setting [2] is listed as 99.7 nm.

Take `CCCCC/C=C\C/C=C\CCCCCCCCN(CCCCCCCC/C=C\C/C=C\CCCCC)C(=O)OCC1CCCN(C)C1` (stereo not shown) [Compound A-15]: the “Particle diameter” value reads like this: under setting [3], 124.0 nm; under setting [2], 98.4 nm.

Consider `CCCCC/C=C\C/C=C\CCCCCCCCN(CCCCCCCC/C=C\C/C=C\CCCCC)C(=O)OCC1CCCCN1C` (stereo not shown) [Compound A-16, (1-Methylpiperidin-2-yl)methyl di((9Z,12Z)-octadeca-9,12-dien-1-yl)carbamate], for which the “Particle diameter” value is 133.4 nm under setting [3] and 105.5 nm under setting [2].

Take `CCCCCCCC/C=C\CCCCCCCCN(CCCCCCCC/C=C\CCCCCCCC)C(=O)OCCC1CCCN1C` (stereo not shown) [Compound A-17, 2-(1-Methylpyrrolidin-2-yl)ethyl di((Z)-octadec-9-enyl)carbamate]: the “Particle diameter” value is, setting by setting: under setting [3], 129.1 nm; under setting [2], 101.4 nm.

As for `CCCCCCCC/C=C\CCCCCCCCN(CCCCCCCC/C=C\CCCCCCCC)C(=O)OCC1CCCN(C)C1` (stereo not shown) [Compound A-18, (1-Methylpiperidin-3-yl)methyl di((Z)-octadec-9-enyl)carbamate], the “Particle diameter” value under setting [3] is 138.4 nm and the “Particle diameter” value under setting [2] was 112.0 nm.

For `CCCCC/C=C\C/C=C\CCCCCCCCCCN(CCCCCCCCCC/C=C\C/C=C\CCCCC)C(=O)OCCC1CCCN1C` (stereo not shown) [Compound A-19, 2-(1-Methylpyrrolidin-2-yl)ethyl di((11Z,14Z)-icosa-11,14-dienyl)carbamate], the “Particle diameter” value under setting [3] is 140.0 nm and the “Particle diameter” value under setting [2] is 91.4 nm.

Turning to `CCCCC/C=C\C/C=C\CCCCCCCCCCN(CCCCCCCCCC/C=C\C/C=C\CCCCC)C(=O)OCC1CCCN(C)C1` (stereo not shown) [Compound A-20, (1-Methylpiperidin-3-yl)methyl di((11Z,14Z)-icosa-11,14-dienyl)carbamate], the “Particle diameter” value is 145.1 nm under setting [3] and 95.7 nm under setting [2].

`CCCCC/C=C\C/C=C\CCCCCCCCN(CCCCCCCC/C=C\C/C=C\CCCCC)C(=O)OCC1CCCN1C` (stereo not shown) [Compound A-21, (1-Methylpyrrolidin-2-yl)methyl di((9Z,12Z)-octadeca-9,12-dien-1-yl)carbamate]: the “Particle diameter” value turned out to be 141.0 nm under setting [3] and 104.8 nm under setting [2].

On to `CCCCC/C=C\C/C=C\CCCCCCCCN(CCCCCCCC/C=C\C/C=C\CCCCC)C(=O)OCCCN1CCCCCCC1` [Compound A-28], for which the “Particle diameter” value runs as follows: under setting [3], 132.0 nm; under setting [2], 111.3 nm.

As to `CCCCC/C=C\C/C=C\CCCCCCCCOCCN(CCCCCCCC/C=C\C/C=C\CCCCC)C(=O)OCCCN1CCCCC1` [Compound A-29, 3-(Piperidin-1-yl)propyl ((9Z,12Z)-octadeca-9,12-dienyl)(2-((9Z,12Z)-octadeca-9,12-dienyloxy)ethyl)carbamate], the “Particle diameter” value by setting is: under setting [3], 130.6 nm; under setting [2], 103.4 nm.

With `CCCCC/C=C\C/C=C\CCCCCCCCOCCN(CCCCCCCC/C=C\C/C=C\CCCCC)C(=O)OCCC1CCCN1C` (stereo not shown) [Compound A-30], the “Particle diameter” value is, setting by setting: under setting [3], 130.4 nm; under setting [2], 106.2 nm.

As to `CCCCC/C=C\C/C=C\CCCCCCCCOCCN(CCCCCCCC/C=C\C/C=C\CCCCC)C(=O)OCCCN1CCCCCC1` [Compound A-31, 3-(Azepan-1-yl)propyl ((9Z,12Z)-octadeca-9,12-dienyl) (2-((9Z,12Z)-octadeca-9,12-dienyloxy)ethyl)carbamate], the “Particle diameter” value reads like this: under setting [3], 139.1 nm; under setting [2], 102.2 nm.

As for `CCCCC/C=C\C/C=C\CCCCCCCCOCCN(CCCCCCCC/C=C\C/C=C\CCCCC)C(=O)OCC1CCCN(C)C1` (stereo not shown) [Compound A-32, (1-Methylpiperidin-3-yl)methyl ((9Z,12Z)-octadeca-9,12-dienyl)(2-((Z,12Z)-octadeca-9,12-dienyloxy)ethyl)carbamate], the “Particle diameter” value was found to be 124.6 nm under setting [3] and 101.4 nm under setting [2].

With `CCCCC/C=C\C/C=C\CCCCCCCCN(CCOCCCCCCCC/C=C\CCCCCCCC)C(=O)OCCC1CCCN1C` (stereo not shown) [Compound A-34, 2-(1-Methylpyrrolidin-2-yl)ethyl (2-((Z)-octadec-9-enyloxy)ethyl)((9Z,12Z)-octadeca-9,12-dienyl)carbamate], the “Particle diameter” value under setting [3] stood at 140.2 nm and the “Particle diameter” value under setting [2] was determined as 92.6 nm.

Take `CCCCC/C=C\C/C=C\CCCCCCCCN(CCOCCCCCCCC/C=C\CCCCCCCC)C(=O)OCCCN(C)C` [Compound A-35, 3-(Dimethylamino)propyl (2-((Z)-octadec-9-enyloxy)ethyl)((9Z,12Z)-octadeca-9,12-dienyl)carbamate]: the “Particle diameter” value is 137.8 nm under setting [3] and 115.4 nm under setting [2].

Turning to `CCCCC/C=C\C/C=C\CCCCCCCCN(CCOCCCCCCCC/C=C\CCCCCC)C(=O)OCCCN(C)C` [Compound A-36, 3-(Dimethylamino)propyl (2-((Z)-hexadec-9-enyloxy)ethyl)((9Z,12Z)-octadeca-9,12-dienyl)carbamate], the “Particle diameter” value runs as follows: under setting [3], 126.5 nm; under setting [2], 127.2 nm.

As to `CCCCC/C=C\C/C=C\CCCCCCCCNCCCCCCCC/C=C\C/C=C\CCCCC` [Compound B-1, Di((9Z,12Z)-octadeca-9,12-dienyl)amine], the “Particle diameter” value under setting [3] is 160.6 nm.
